The record followed here is patent US9303016B2, “Derivatives of aza adamantane and uses thereof” (CONNEXIOS LIFE SCIENCES PVT. LTD., priority 2011, dated 2016).

Some results are limits rather than exact numbers.

T1 sequence (P28845 whole entry): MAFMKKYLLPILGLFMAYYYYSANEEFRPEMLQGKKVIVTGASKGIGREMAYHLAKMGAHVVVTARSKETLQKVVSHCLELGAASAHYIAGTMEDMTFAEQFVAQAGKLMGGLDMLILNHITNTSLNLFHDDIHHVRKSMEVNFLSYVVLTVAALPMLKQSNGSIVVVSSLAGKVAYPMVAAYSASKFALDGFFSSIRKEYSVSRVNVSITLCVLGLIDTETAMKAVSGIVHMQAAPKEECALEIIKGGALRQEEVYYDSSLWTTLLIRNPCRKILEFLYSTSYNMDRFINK

This test concerns the target T1, human full length HSD11β1 (Homo sapiens, UniProt P28845).
T1 construct: transient expression of human full length HSD11β1 expression vector; host or cells: CHO cells, transient transfection
As to the kind of experiment: In Vitro HSD11β1 Inhibition Assay. In kind it is cell-based. Conditions: CHO cells transiently expressing human HSD11β1; 200 nM cortisone+500 uM NADPH overnight; cortisone to cortisol by LC/MS-MS; read-out: 11βHSD1 (IC50). As to the method: In Vitro HSD11β1 Inhibition Assay:
CHO cells were maintained in Dulbecco's modified Eagle's medium/nutrient mixture F-12 containing 5% fetal bovine serum (v/v) and 2 mM glutamine. Cells were cultured at 37° C. with 5% CO2. For transient expression of human full length HSD11β1 expression vector (OriGene Technologies), cells were seeded at a density of 2×10^5 cells/well in a 6-well plate. Transfection was done using Turbofectin8 reagent (OriGene Technologies), according to the protocol provided with the reagent. After 24 hours post-transfection, cells were trypsinized and pooled together before they were re-seeding to 96-well plate at a density of 40000 cells/well. 24 hours after re-seeding, cells were incubated with 200 nM cortisone+500 uM NADPH (or along with small molecule inhibitors) overnight. The enzymatic activity or inhibition of enzyme activity was measured by estimating the conversion of cortisone to cortisol by LC/MS-MS method. The IC50 in nM was calculated from a 8 point log scale of concentration versus inhibition.
As for `CC(CC(=O)N1C2CC3CC1CC(OC(F)F)(C3)C2)c1c[nH]c2cccc(Cl)c12` (stereo not shown) [Example 39, 3-(4-chloro-1H-indol-3-yl)-1-[5-(difluoromethoxy)-2-azatricyclo[3.3.1.1^7]dec-2-yl]butan-1-one], the IC50 was in the range of 100 to 150 nM.
For the molecule `CC(CC(=O)N1C2CC3CC1CC(O)(C3)C2)c1c[nH]c2cccc(C3CC3)c12` (single isomer, unassigned) [Compound 102, 3-(4-cyclopropyl-1H-indol-3-yl)-1-(5-hydroxy-2-azatricyclo[3.3.1.1^3,7]dec-2-yl)butan-1-one], the IC50 was < 100 nM.
Under `O=C(CC(c1ccccc1)c1c[nH]c2cc(Cl)ccc12)N1C2CC3CC1CC(C(=O)O)(C3)C2` (stereo not shown) [Compound 134, 2-[3-(6-chloro-1H-indol-3-yl)-3-phenylpropanoyl]-2-azatricyclo[3.3.1.1^3,7]decane-5-carboxylic acid] stands 150 to 200 nM; under `CC(CC(=O)N1C2CC3CC(C2)CC1C3)c1c[nH]c2cccc(N3CCC(C(=O)O)CC3)c12` (stereo not shown) [Compound 183, 1-{3-[4-(2-azatricyclo[3.3.1.1^3,7]dec-2-yl)-4-oxobutan-2-yl]-1H-indol-4-yl}piperidine-4-carboxylic acid], > 250 nM.
As for `COC12CC3CC(C1)N(C(=O)CC(C)c1c[nH]c4ccccc14)C(C3)C2` (stereo not shown) [Example 34, 3-(1H-indol-3-yl)-1-(5-methoxy-2-azatricyclo[3.3.1.1^3,7]dec-2-yl)butan-1-one], the IC50 is > 250 nM.
On to `COc1cc2c(C(C)CC(=O)N3C4CC5CC3CC(O)(C5)C4)c[nH]c2cc1Cl` (single isomer, unassigned) [Compound 129, 3-(6-chloro-5-methoxy-1H-indol-3-yl)-1-(5-hydroxy-2-azatricyclo[3.3.1.1^3,7]dec-2-yl)butan-1-one], for which the IC50 is > 250 nM.
As to `O=C(CC(c1ccc(F)cc1)c1c[nH]c2ccccc12)N1C2CC3CC1CC(O)(C3)C2` (single isomer, unassigned) [Compound 81, 3-(4-fluorophenyl)-1-(5-hydroxy-2-azatricyclo[3.3.1.1^3,7]dec-2-yl)-3-(1H-indol-3-yl)propan-1-one], the IC50 was > 250 nM.
`Cc1cccc2[nH]cc(C(C)CC(=O)N3C4CC5CC3CC(C(=O)O)(C5)C4)c12` (stereo not shown) [Example 57, 2-[3-(4-methyl-1H-indol-3-yl)butanoyl]-2-azatricyclo[3.3.1.1^3,7]decane-5-carboxylic acid]: the IC50 was > 250 nM.
`CC(CC(=O)N1C2CC3CC1CC(O)(C3)C2)c1nc2ccc(Cl)cc2s1` (single isomer, unassigned) [Compound 194, 3-(6-chloro-1,3-benzothiazol-2-yl)-1-(5-hydroxy-2-azatricyclo[3.3.1.1^3,7]dec-2-yl)butan-1-one]: the IC50 is < 100 nM.
Consider `CC(CC(=O)N1C2CC3CC1CC(O)(C3)C2)c1c[nH]c2cc(Cl)c(F)cc12` (stereo not shown) [Compound 133, 3-(6-chloro-5-fluoro-1H-indol-3-yl)-1-(5-hydroxy-2-azatricyclo[3.3.1.1^3,7]dec-2-yl)butan-1-one], for which the IC50 was in the range of 100 to 150 nM.
On to `CC(CC(=O)N1C2CC3CC1CC(O)(C3)C2)c1c[nH]c2ccc(F)c(C3CC3)c12` (single isomer, unassigned) [Compound 158, 3-(4-cyclopropyl-5-fluoro-1H-indol-3-yl)-1-(5-hydroxy-2-azatricyclo[3.3.1.1^3,7]dec-2-yl)butan-1-one], for which the IC50 was > 250 nM.
Consider `Cc1ccc2[nH]cc(C(C)CC(=O)N3C4CC5CC3CC(O)(C5)C4)c2c1Cl` (stereo not shown) [Compound 166, 3-(4-chloro-5-methyl-1H-indol-3-yl)-1-(5-hydroxy-2-azatricyclo[3.3.1.1^3,7]dec-2-yl)butan-1-one], for which the IC50 is < 100 nM.
Take `O=C(CC(c1ccccc1)c1c[nH]c2cc(F)ccc12)N1C2CC3CC1CC(C(=O)O)(C3)C2` (stereo not shown) [Compound 112, 2-[3-(6-fluoro-1H-indol-3-yl)-3-phenylpropanoyl]-2-azatricyclo[3.3.1.1^3,7]decane-5-carboxylic acid]: the 50% inhibitory concentration (IC50) fell in the range of 200 to 250 nM.
As to `CC(CC(=O)N1C2CC3CC1CC(O)(C3)C2)c1c[nH]c2cccc(Cl)c12` (single isomer, unassigned) [Example 36, 3-(4-chloro-1H-indol-3-yl)-1-(5-hydroxy-2-azatricyclo[3.3.1.1^3,7]dec-2-yl)butan-1-one], the IC50 lay in the range of 200 to 250 nM.
To `O=C(CC(c1ccccc1)c1nc2ccccc2s1)N1C2CC3CC1CC(F)(C3)C2` (stereo not shown) [Compound 108, 3-(1,3-benzothiazol-2-yl)-1-(5-fluoro-2-azatricyclo[3.3.1.1^3,7]dec-2-yl)-3-phenylpropan-1-one] belongs > 250 nM.
On to `CC(CC(=O)N1C2CC3CC1CC(O)(C3)C2)c1nc2c(Cl)cccc2s1` (stereo not shown) [Compound 120, 3-(4-chloro-1,3-benzothiazol-2-yl)-1-(5-hydroxy-2-azatricyclo[3.3.1.1^3,7]dec-2-yl)butan-1-one], for which the IC50 is > 250 nM.
As to `COc1ccc2[nH]cc(C(C)CC(=O)N3C4CC5CC3CC(O)(C5)C4)c2c1` (stereo not shown) [Compound 109, 1-(5-hydroxy-2-azatricyclo[3.3.1.1^3,7]dec-2-yl)-3-(5-methoxy-1H-indol-3-yl)butan-1-one], the IC50 was > 250 nM.
Under `Cc1cccc2[nH]cc(C(C)CC(=O)N3C4CC5CC3CC(C#N)(C5)C4)c12` (stereo not shown) [Example 70, 2-[3-(4-methyl-1H-indol-3-yl)butanoyl]-2-azatricyclo[3.3.1.1^3,7]decane-5-carbonitrile] stands 150 to 200 nM; under `O=C(CC(c1ccccc1)c1c[nH]c2ccccc12)N1C2CC3CC1CC(O)(C3)C2` (stereo not shown) [Example 67, 1-(5-hydroxy-2-azatricyclo[3.3.1.1^3,7]dec-2-yl)-3-(1H-indol-3-yl)-3-phenylpropan-1-one], 100 to 150 nM.
On to `Cc1cccc2[nH]cc(CCC(=O)N3C4CC5CC3CC(O)(C5)C4)c12` [Compound 116, 1-(5-hydroxy-2-azatricyclo[3.3.1.1^3,7]dec-2-yl)-3-(4-methyl-1H-indol-3-yl)propan-1-one], for which the IC50 was 200 to 250 nM.
`CC(CC(=O)N1C2CC3CC1CC(CC(=O)O)(C3)C2)c1c[nH]c2cccc(C3CC3)c12` (single isomer, unassigned) [Compound 156, {2-[3-(4-cyclopropyl-1H-indol-3-yl)butanoyl]-2-azatricyclo[3.3.1.1^3,7]dec-5-yl}acetic acid]: the IC50 is > 250 nM.
On to `CC(CC(=O)N1C2CC3CC1CC(C(N)=O)(C3)C2)c1nc2ccc(Cl)cc2s1` (stereo not shown) [Compound 196, 2-[3-(6-chloro-1,3-benzothiazol-2-yl)butanoyl]-2-azatricyclo[3.3.1.1^3,7]decane-5-carboxamide], for which the IC50 is > 250 nM.
Regarding `CC(CC(=O)N1C2CC3CC1CC(O)(C3)C2)c1c[nH]c2cccc(C3CC3)c12` (single isomer, unassigned) [Compound 103, 3-(4-cyclopropyl-1H-indol-3-yl)-1-(5-hydroxy-2-azatricyclo[3.3.1.1^3,7]dec-2-yl)butan-1-one], the IC50 is > 250 nM.
Under `O=C(CCc1c[nH]c2ncccc12)N1C2CC3CC(C2)CC1C3` [Example 14, 1-(2-azatricyclo[3.3.1.1^3,7]dec-2-yl)-3-(1H-pyrrolo[2,3-b]pyridin-3-yl)propan-1-one] stands 100 to 150 nM; under `O=C(CCn1nnc2ccccc21)N1C2CC3CC1CC(O)(C3)C2` [Example 16, 3-(1H-benzotriazol-1-yl)-1-(5-hydroxy-2-azatricyclo[3.3.1.1^3,7]dec-2-yl)propan-1-one], > 250 nM.

The IC50 is the concentration that inhibits the measured activity by half.
